# Measurements reported in patent US10800741B2 (ANCUREALL PHARMACEUTICAL (SHANGHAI) CO., LTD., priority 2017, dated 2020).
# What was measured:
# Assay in all cases: KINOMEscan in vitro binding to 468 labeled protein kinases
# [1] = biological target: T1, protein kinases (Homo sapiens, UniProt P36888, K663Q); conditions: FLT3(K663Q), read-out: Test compound/solvent control (%)
# T1 construct: purchased Discovery X company (USA), KINOMEscan screening platform
# T1 sequence (P36888 27-993 K663Q): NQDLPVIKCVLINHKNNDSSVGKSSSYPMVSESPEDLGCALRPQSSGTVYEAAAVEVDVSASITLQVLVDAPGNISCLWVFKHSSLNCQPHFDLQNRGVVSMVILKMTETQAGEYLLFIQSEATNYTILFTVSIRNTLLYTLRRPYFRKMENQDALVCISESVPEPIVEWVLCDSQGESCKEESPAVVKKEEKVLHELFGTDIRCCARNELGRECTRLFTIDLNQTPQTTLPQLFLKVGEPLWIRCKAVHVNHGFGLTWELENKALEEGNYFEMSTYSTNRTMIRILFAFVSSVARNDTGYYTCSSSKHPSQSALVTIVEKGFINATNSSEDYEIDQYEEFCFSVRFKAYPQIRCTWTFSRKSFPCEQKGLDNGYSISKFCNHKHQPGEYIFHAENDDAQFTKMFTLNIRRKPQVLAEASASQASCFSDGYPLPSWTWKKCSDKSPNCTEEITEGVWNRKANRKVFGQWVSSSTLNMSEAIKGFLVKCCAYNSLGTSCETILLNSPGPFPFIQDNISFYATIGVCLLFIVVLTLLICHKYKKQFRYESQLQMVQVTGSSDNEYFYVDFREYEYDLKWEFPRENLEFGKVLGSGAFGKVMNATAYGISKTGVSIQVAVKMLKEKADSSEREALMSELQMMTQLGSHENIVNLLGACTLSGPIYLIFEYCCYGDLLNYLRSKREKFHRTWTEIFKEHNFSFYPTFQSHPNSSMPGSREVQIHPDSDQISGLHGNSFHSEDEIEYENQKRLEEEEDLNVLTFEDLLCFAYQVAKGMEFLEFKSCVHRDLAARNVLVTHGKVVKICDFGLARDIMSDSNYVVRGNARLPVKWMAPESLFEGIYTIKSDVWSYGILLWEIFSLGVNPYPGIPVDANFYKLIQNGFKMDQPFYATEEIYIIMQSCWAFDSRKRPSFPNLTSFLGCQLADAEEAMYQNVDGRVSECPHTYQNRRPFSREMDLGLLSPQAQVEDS
# Protocol: (§1) Test Example 6 Determination of Binding Affinity of the Present Compounds on Protein Kinases In Vitro
# (§2) KINOMEscan screening platform of Discovery X company (USA) was used to identify the binding targets of the present compounds to protein kinases. Compound 66 of the present invention was dissolved in DMSO (Sigma Aldrich) at concentrations of 1000 nM, 10 nM and 1 nM, and then was subjected to in vitro binding reaction with 468 labeled protein kinases. Two samples were taken in parallel for each assay sample.
# (§3) The lower the percentage of the test compound to the solvent control, the stronger the binding affinity of the test compound to the protein kinase in vitro.
# [2] = biological target: T2, protein kinases (Homo sapiens, UniProt P10721); conditions: KIT, read-out: Test compound/solvent control (%)
# T2 construct: purchased Discovery X company (USA), KINOMEscan screening platform
# T2 sequence (P10721 26-976): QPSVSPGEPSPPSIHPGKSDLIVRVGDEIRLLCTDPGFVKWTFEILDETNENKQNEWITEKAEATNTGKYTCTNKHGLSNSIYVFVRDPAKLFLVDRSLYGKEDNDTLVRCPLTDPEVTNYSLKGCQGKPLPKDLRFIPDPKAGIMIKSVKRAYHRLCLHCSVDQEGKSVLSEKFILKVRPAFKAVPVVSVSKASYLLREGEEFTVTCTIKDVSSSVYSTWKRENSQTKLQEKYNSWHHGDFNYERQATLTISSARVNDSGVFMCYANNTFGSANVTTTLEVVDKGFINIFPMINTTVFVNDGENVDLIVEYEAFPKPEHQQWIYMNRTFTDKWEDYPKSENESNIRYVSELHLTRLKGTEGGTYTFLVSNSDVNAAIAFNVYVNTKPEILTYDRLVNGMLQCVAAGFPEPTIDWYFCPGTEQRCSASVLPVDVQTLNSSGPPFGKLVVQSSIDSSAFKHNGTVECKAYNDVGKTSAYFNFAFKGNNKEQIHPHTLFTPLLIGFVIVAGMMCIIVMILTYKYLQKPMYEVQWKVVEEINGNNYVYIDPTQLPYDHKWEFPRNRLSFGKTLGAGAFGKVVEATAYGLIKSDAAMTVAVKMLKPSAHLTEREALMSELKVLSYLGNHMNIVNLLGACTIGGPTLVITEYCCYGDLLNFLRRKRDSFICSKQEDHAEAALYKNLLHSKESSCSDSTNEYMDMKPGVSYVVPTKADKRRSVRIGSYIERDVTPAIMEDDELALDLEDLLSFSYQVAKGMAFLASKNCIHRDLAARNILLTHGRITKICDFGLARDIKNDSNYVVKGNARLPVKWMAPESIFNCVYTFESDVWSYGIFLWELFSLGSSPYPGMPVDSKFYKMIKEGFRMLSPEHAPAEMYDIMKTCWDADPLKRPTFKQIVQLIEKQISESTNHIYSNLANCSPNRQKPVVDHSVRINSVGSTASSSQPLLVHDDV
# Protocol: as §1, §2, §3
# [3] = biological target: T3, protein kinases (Homo sapiens, UniProt P30530); conditions: AXL, read-out: Test compound/solvent control (%)
# T3 construct: purchased Discovery X company (USA), KINOMEscan screening platform
# T3 sequence (P30530 26-894): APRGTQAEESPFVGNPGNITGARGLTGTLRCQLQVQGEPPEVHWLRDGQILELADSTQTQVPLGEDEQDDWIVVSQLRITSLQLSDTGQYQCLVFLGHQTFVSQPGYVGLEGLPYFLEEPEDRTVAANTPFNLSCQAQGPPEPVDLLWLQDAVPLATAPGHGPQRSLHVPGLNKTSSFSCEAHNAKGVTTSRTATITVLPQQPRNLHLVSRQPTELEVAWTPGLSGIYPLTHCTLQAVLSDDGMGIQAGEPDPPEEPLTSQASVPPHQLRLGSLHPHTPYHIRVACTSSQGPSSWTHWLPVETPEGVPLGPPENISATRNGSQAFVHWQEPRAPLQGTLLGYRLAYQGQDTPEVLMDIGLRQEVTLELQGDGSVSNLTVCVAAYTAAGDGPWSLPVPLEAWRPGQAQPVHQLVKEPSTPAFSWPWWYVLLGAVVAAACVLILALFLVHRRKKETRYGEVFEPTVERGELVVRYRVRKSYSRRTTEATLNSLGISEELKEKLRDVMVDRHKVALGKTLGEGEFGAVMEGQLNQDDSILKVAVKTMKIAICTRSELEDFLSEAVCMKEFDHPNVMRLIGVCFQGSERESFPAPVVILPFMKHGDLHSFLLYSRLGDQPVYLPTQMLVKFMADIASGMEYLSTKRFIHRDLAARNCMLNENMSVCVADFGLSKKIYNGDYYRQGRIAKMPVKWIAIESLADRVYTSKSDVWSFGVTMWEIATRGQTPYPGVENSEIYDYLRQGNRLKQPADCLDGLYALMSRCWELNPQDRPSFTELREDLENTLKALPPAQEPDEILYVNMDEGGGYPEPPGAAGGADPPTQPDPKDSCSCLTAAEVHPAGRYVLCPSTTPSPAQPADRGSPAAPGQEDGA
# Protocol: as §1, §2, §3
compound,measurement,setting,value
"COCCOc1cc2nccc(Oc3ccc(NC(=O)Nc4cc(C(C)(C)C)n[nH]4)c(Cl)c3)c2cc1NC(C)=O [Compound 66, N-[4-{4-[3-(5-tert-butyl-2H-pyrazol-3-yl)-ureido]-3-chloro-phenoxy}-7-(2-methoxy-ethoxy)-quinolin-6-yl]-acetamide]",remaining binding at 0.001 µM,[1]; 1 nM,89%
same,remaining binding at 0.01 µM,[1]; 10 nM,22%
same,remaining binding at 1 µM,[1]; 1000 nM,3.2%
same,remaining binding at 0.001 µM,[2]; 1 nM,90%
same,remaining binding at 0.01 µM,[2]; 10 nM,27%
same,remaining binding at 1 µM,[2]; 1000 nM,0%
same,remaining binding at 0.001 µM,[3]; 1 nM,53%
same,remaining binding at 0.01 µM,[3]; 10 nM,7.2%
same,remaining binding at 1 µM,[3]; 1000 nM,4.1%
